Results taken from patent US8232273B2, “Heterocyclic compounds and methods of use” (Genentech, Inc., priority 2008, dated 2012).
Where two headings read alike, the source gives them in different places.

Target: Bcl-xL (GST-Bcl-xL) (Homo sapiens, UniProt Q07817)
Experiment: TR-FRET binding assay, competition with F-Bak for the Bcl-xL binding site
Description: The measurement of competition of compounds of the invention with F-Bak for a Bcl-2 family protein (Bcl-xL) binding site using a Time Resolved Fluorescence Resonance Energy Transfer (TR-FRET) binding assay:
Test compounds were serially diluted in DMSO starting at 50 μM (2× starting concentration; 10% DMSO) and 10 μt transferred into a 384-well plate.
The samples are then mixed on a shaker for 1 minute then incubated for an additional 2 hours at room temperature. For each assay plate, a probe/antibody and protein/antibody/probe mixture were included as a negative and a positive control, respectively. Fluorescence was measured on the Envision (Perkin Elmer) using a 340/35 nm excitation filter and 520/525 (F-Bak) and 495/510 nm (Tb-labeled anti-his antibody) emission filters. Dissociation constants (Ki) were determined using Wang's equation (see, Wang, Z. X. An exact mathematical expression for describing competitive binding of two different ligands to a protein molecule. FEBS Lett. 1995 360:111-114). The TR-FRET assay can be performed in the presence of varying concentrations of human serum (HS) or fetal bovine serum (FBS).

[1] = values listed in the order of Table 1, read-out: TR-FRET assay results (Ki), Bcl-xL

Chain of Bcl-xL (GST-Bcl-xL) (Q07817 whole entry, species assumed): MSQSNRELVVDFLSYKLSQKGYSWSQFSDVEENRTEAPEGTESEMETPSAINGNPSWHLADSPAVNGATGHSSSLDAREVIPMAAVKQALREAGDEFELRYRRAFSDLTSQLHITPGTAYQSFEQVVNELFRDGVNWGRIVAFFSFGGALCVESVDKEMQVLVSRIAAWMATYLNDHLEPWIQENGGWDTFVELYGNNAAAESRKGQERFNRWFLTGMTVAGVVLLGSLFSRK

Compound	Ki [1]	Ki (with 1% human serum (HS))
O=C(Nc1nc2ccccc2s1)c1cccc2c1CN(c1ccc(CCCCOc3ccccc3)c(C(=O)O)n1)CC2 [Compound 131, 6-(8-(benzo[d]thiazol-2-ylcarbamoyl)-3,4-dihydroisoquinolin-2(1H)-yl)-3-(4-phenoxybutyl)picolinic acid]	18900 pM	
O=C(Nc1nc2ccccc2s1)c1cccc2c1CN(c1nc(C(=O)O)c(CCOCc3ccccc3)s1)CC2 [Compound 134, 2-(8-(benzo[d]thiazol-2-ylcarbamoyl)-3,4-dihydroisoquinolin-2(1H)-yl)-5-(2-(benzyloxy)ethyl)thiazole-4-carboxylic acid]	600 pM	
CN(C)CC#Cc1ccc(OCCCc2sc(N3CCc4cccc(C(=O)Nc5nc6ccccc6s5)c4C3)nc2C(=O)NS(C)(=O)=O)c(F)c1 [Compound 142, 2-(8-(benzo[d]thiazol-2-ylcarbamoyl)-3,4-dihydroisoquinolin-2(1H)-yl)-5-(3-(4-(3-(dimethylamino)prop-1-ynyl)-2-fluorophenoxy)propyl)-N-(methylsulfonyl) thiazole-4-carboxamide]	88 pM	
CN(C)CC#Cc1ccc(OCCCc2sc(N3CCc4cccc(C(=O)Nc5nc6ccccc6s5)c4C3)nc2C(=O)NS(=O)(=O)C(F)F)c(F)c1 [Compound 147, 2-(8-(benzo[d]thiazol-2-ylcarbamoyl)-3,4-dihydroisoquinolin-2(1H)-yl)-N-(difluoromethylsulfonyl)-5-(3-(4-(3-(dimethylamino)prop-1-ynyl)-2-fluorophenoxy)propyl)thiazole-4-carboxamide]	> 660000 pM	
O=C(Nc1nc2ccccc2s1)c1cccc2c1CN(c1nc(C(=O)O)c(CCCN3CCOCC3)s1)CC2 [Example 19, 2-(8-(benzo[d]thiazol-2-ylcarbamoyl)-3,4-dihydroisoquinolin-2(1H)-yl)-5-(3-morpholinopropyl)thiazole-4-carboxylic acid]	9000 pM	
O=C(Nc1nc2ccccc2s1)c1cccc2c1CN(c1nc(C(=O)O)c(CCCOc3cccc(-n4ncc5cncnc54)c3)s1)CC2 [Example 33]	300 pM	
N#Cc1c(-c2cccc(OCC#Cc3sc(N4CCc5cccc(C(=O)Nc6nc7ccccc7s6)c5C4)nc3C(=O)O)c2)n[nH]c1N [Example 36, 5-(3-(3-(5-amino-4-cyano-1H-pyrazol-3-yl)phenoxy)prop-1-ynyl)-2-(8-(benzo[d]thiazol-2-ylcarbamoyl)-3,4-dihydroisoquinolin-2(1H)-yl)thiazole-4-carboxylic acid]	5000 pM	
N#Cc1c(-c2cccc(OCc3ccc(-c4sc(N5CCc6cccc(C(=O)Nc7nc8ccccc8s7)c6C5)nc4C(=O)O)cc3)c2)n[nH]c1N [Example 37, 5-(4-((3-(5-amino-4-cyano-1H-pyrazol-3-yl)phenoxy)methyl)phenyl)-2-(8-(benzo[d]thiazol-2-ylcarbamoyl)-3,4-dihydroisoquinolin-2(1H)-yl)thiazole-4-carboxylic acid]	4000 pM	
N#Cc1c(-c2cccc(OCCCc3sc(N4CCc5cccc(C(=O)Nc6nc7ccccc7s6)c5C4)nc3C(=O)O)c2)n[nH]c1N [Example 39, 5-(3-(3-(5-amino-4-cyano-1H-pyrazol-3-yl)phenoxy)propyl)-2-(8-(benzo[d]thiazol-2-ylcarbamoyl)-3,4-dihydroisoquinolin-2(1H)-yl)thiazole-4-carboxylic acid]	200 pM	
N#Cc1c(-c2ccc(OCC#Cc3sc(N4CCc5cccc(C(=O)Nc6nc7ccccc7s6)c5C4)nc3C(=O)O)cc2)n[nH]c1N [Example 40, 5-(3-(4-(5-amino-4-cyano-1H-pyrazol-3-yl)phenoxy)prop-1-ynyl)-2-(8-(benzo[d]thiazol-2-ylcarbamoyl)-3,4-dihydroisoquinolin-2(1H)-yl)thiazole-4-carboxylic acid]	400 pM	
O=C(Nc1nc2ccccc2s1)c1cccc2c1CN(c1nc(C(=O)O)c(CCCCOc3ccc(-n4ncc5cncnc54)cc3)s1)CC2 [Example 43, 5-(4-(4-(1H-pyrazolo[3,4-d]pyrimidin-1-yl)phenoxy)butyl)-2-(8-(benzo[d]thiazol-2-ylcarbamoyl)-3,4-dihydroisoquinolin-2(1H)-yl)thiazole-4-carboxylic acid]	5000 pM	
CC(C)Nc1ncnc2c1cnn2-c1ccc(OCCCc2sc(N3CCc4cccc(C(=O)Nc5nc6ccccc6s5)c4C3)nc2C(=O)O)cc1 [Example 44, 2-(8-(benzo[d]thiazol-2-ylcarbamoyl)-3,4-dihydroisoquinolin-2(1H)-yl)-5-(3-(4-(4-(isopropylamino)-1H-pyrazolo[3,4-d]pyrimidin-1-yl)phenoxy)propyl)thiazole-4-carboxylic acid]	70 pM	
N#Cc1c(-c2cccc(OCc3sc(N4CCc5cccc(C(=O)Nc6nc7ccccc7s6)c5C4)nc3C(=O)O)c2)n[nH]c1N [Example 46, 5-[3-(5-Amino-4-cyano-1H-pyrazol-3-yl)-phenoxymethyl]-2-[8-(benzothiazol-2-ylcarbamoyl)-3,4-dihydro-1H-isoquinolin-2-yl]-thiazole-4-carboxylic acid]	1000 pM	
N#Cc1c(-c2ccc(OCCCc3sc(N4CCc5cccc(C(=O)Nc6nc7ccccc7s6)c5C4)nc3C(=O)O)cc2)csc1N [Example 47, 5-{3-[4-(5-Amino-4-cyano-thiophen-3-yl)-phenoxy]-propyl}-2-[8-(benzothiazol-2-ylcarbamoyl)-3,4-dihydro-1H-isoquinolin-2-yl]-thiazole-4-carboxylic acid]	100 pM	
O=C(Nc1nc2ccccc2s1)c1cccc2c1CN(c1nc(C(=O)O)c(CCCOc3ccc(C4=CSC5=NCCN45)cc3)s1)CC2 [Example 53, 2-(8-(benzo[d]thiazol-2-ylcarbamoyl)-3,4-dihydroisoquinolin-2(1H)-yl)-5-(3-(4-(5,6-dihydroimidazo[2,1-b]thiazol-3-yl)phenoxy)propyl)thiazole-4-carboxylic acid]	50 pM	
N#Cc1cccnc1-c1ccc(OCCCc2sc(N3CCc4cccc(C(=O)Nc5nc6ccccc6s5)c4C3)nc2C(=O)O)cc1 [Example 56, 2-[8-(Benzothiazol-2-ylcarbamoyl)-3,4-dihydro-1H-isoquinolin-2-yl]-5-{3-[4-(3-cyano-pyridin-2-yl)-phenoxy]-propyl}-thiazole-4-carboxylic acid]	50 pM	
CN(C)CC#Cc1ccc(OCCCc2sc(N3CCc4cccc(C(=O)Nc5nc6ccccc6s5)c4C3)nc2C(=O)O)cn1 [Example 57, 2-(8-(benzo[d]thiazol-2-ylcarbamoyl)-3,4-dihydroisoquinolin-2(1H)-yl)-5-(3-(6-(3-(dimethylamino)prop-1-ynyl)pyridin-3-yloxy)propyl)thiazole-4-carboxylic acid]		70 pM
O=C(Nc1nc2ccccc2s1)c1cccc2c1CN(c1nc(C(=O)O)c(CCCOc3ccc(N4CCOCC4)cc3)s1)CC2 [Example 59, 2-[8-(Benzothiazol-2-ylcarbamoyl)-3,4-dihydro-1H-isoquinolin-2-yl]-5-[3-(4-morpholin-4-yl-phenoxy)-propyl]-thiazole-4-carboxylic acid]	300 pM	
N#Cc1cscc1-c1ccc(O)c(Cc2sc(N3CCc4cccc(C(=O)Nc5nc6ccccc6s5)c4C3)nc2C(=O)O)c1 [Example 60, 2-[8-(Benzothiazol-2-ylcarbamoyl)-3,4-dihydro-1H-isoquinolin-2-yl]-5-[5-(4-cyano-thiophen-3-yl)-2-hydroxy-benzyl]-thiazole-4-carboxylic acid]	176000 pM	
CC(=O)N1CCN(c2ccc(OCCCc3sc(N4CCc5cccc(C(=O)Nc6nc7ccccc7s6)c5C4)nc3C(=O)O)cc2)CC1 [Example 61, 5-{3-[4-(4-Acetyl-piperazin-1-yl)-phenoxy]-propyl}-2-[8-(benzothiazol-2-ylcarbamoyl)-3,4-dihydro-1H-isoquinolin-2-yl]-thiazole-4-carboxylic acid]	300 pM	
O=C(Nc1nc2ccccc2s1)c1cccc2c1CN(c1nc(C(=O)O)c(CCCOc3ccc(-c4ncnc5c(Br)csc45)cc3)s1)CC2 [Example 65]	70 pM	
O=C(Nc1nc2ccccc2s1)c1cccc2c1CN(c1nc(C(=O)O)c(CCCOc3ccc(-n4ccnc4)cc3)s1)CC2 [Example 66, 5-(3-(4-(1H-imidazol-1-yl)phenoxy)propyl)-2-(8-(benzo[d]thiazol-2-ylcarbamoyl)-3,4-dihydroisoquinolin-2(1H)-yl)thiazole-4-carboxylic acid]	100 pM	
O=C(Nc1nc2ccccc2s1)c1cccc2c1CN(c1nc(C(=O)O)c(CCCOc3ccc(-n4cncn4)cc3)s1)CC2 [Example 67, 5-(3-(4-(1H-1,2,4-triazol-1-yl)phenoxy)propyl)-2-(8-(benzo[d]thiazol-2-ylcarbamoyl)-3,4-dihydroisoquinolin-2(1H)-yl)thiazole-4-carboxylic acid]	50 pM	
Cn1cnnc1-c1ccc(OCCCc2sc(N3CCc4cccc(C(=O)Nc5nc6ccccc6s5)c4C3)nc2C(=O)O)cc1 [Example 68, 2-(8-(benzo[d]thiazol-2-ylcarbamoyl)-3,4-dihydroisoquinolin-2(1H)-yl)-5-(3-(4-(4-methyl-4H-1,2,4-triazol-3-yl)phenoxy)propyl)thiazole-4-carboxylic acid]	200 pM	
CC(C)Nc1ncnc2c(-c3ccc(OCCCc4sc(N5CCc6cccc(C(=O)Nc7nc8ccccc8s7)c6C5)nc4C(=O)O)cc3)csc12 [Example 69, 2-[8-(Benzothiazol-2-ylcarbamoyl)-3,4-dihydro-1H-isoquinolin-2-yl]-5-{3-[4-(4-isopropylamino-thieno[3,2-d]pyrimidin-7-yl)-phenoxy]-propyl}-thiazole-4-carboxylic acid]	500 pM	
